Entries after “also recorded” stand apart in the source; their conditions may differ.
Tests used:
[1] = system: isolated rat liver mitochondria; assay: FACS analysis of ΔΨm and ROS in isolated mitochondria
Protocol: Measurement of ΔΨm and ROS Production by FACS Analysis. ΔΨm and ROS production were measured by FACScan (Becton Dickinson, San Jose, Calif.) analysis. Freshly isolated rat mitochondria were resuspended in respiration buffer (50-100 μg/ml) and then incubated for 15 min at 37° C. with 50 nM 3,3′-dihexyloxacarbocyanine iodide [DiOC6(3)],2 μM dihydroethidium (HE), or 5 μM 2′,7′-dichlorofluorescin diacetate (H2DCFDA; Molecular Probes Inc.) (Cathcart et al., Anal. Biochem., 134, 111-116 (1983); Carter et al., J. Leukoycte Biol, 55, 253-258 (1994); Zamzami et al., J. Exp. Med., 181 1661-1672 (1995)). Mitochondria were then treated with DCA (100 μM) or PhAsO (80 μM) for 5 min and analyzed by cytofluorometry. For the coincubation studies, mitochondria were preincubated with UDCA (500 μM) or HDCA (500 μM) prior to the addition of either DCA or PhAsO.

[2] = system: rat primary hepatocytes; assay: Apoptosis in isolated rat hepatocytes with DCA, TGF-β1 or okadaic acid ± UDCA (Example III); type: cell-based; conditions: for percentage of apoptotic cells: 50 μM deoxycholic acid 4 hours, 1 nM TGF-β1 24 hours, 25 nM okadaic acid 16 hours
Text: Cell culture and preparation of rat primary hepatocytes. Rat primary hepatocytes were isolated from male Sprague-Dawley rats (200-250 g) by collagenase perfusion as described by Mariasb, et al., J. Biol. Chem. 261, 9583-9586 (1986). Briefly, rats were anesthesized with phenobarbitol and the livers were perfused with 0.05% collagenase. Hepatocyte suspensions were obtained by passing digested livers through 0.125 mm gauze and washing cells in modified Eagle's medium (MEM) (Life Technologies, Inc., Grand Island, N.Y.). Cell viability was determined by trypan blue exclusion and was typically 85 to 90%. After isolation, hepatocytes were resuspended in William's E medium (Life Technologies, Inc.) supplemented with 26 mM sodium bicarbonate, 23 mM HEPES, 0.01 U/mL insulin, 2 mM L-glutamine, 10 nM dexamethasone, 5.5 mM glucose, 100 U/ml penicillin and 100 U/ml streptomycin and then plated on 35×10 mm […] tissue culture dishes (Becton Dickinson Labware, Lincoln Park, N.J.) at 1.0×10^6 cells/ml. The cells were maintained at 37° C. in a humidified atmosphere of 5% CO2 for 3 h. Plates were then washed with medium to remove dead cells, and medium containing 10% heat-inactivated FBS (55° C. for 30 min) was added (Atlanta Biologicals, Inc., Norcross, Ga.).
Incubation of cells with inducers of apoptosis. Freshly isolated rat hepatocytes were cultured for 3 h as described above and then incubated with William's E medium supplemented with either 50 μM DCA for 4 h, 1 nM TGF-β1 for 24 h, or 25 nM okadaic acid for 16 h, in the presence or absence of 100 μM UDCA, or no addition (control). The medium was gently removed at the indicated time points and scored for nonviable cells by trypan blue dye exclusion. The attached cells were fixed for morphologic assessment of apoptotic changes. Morphological evaluation of apoptosis. The medium was gently removed at the indicated time points to prevent detachment of cells. Cells were fixed with 4% formaldehyde in PBS, pH 7.4, for 10 min at room temperature, incubated with Hoechst dye 33258 (Sigma Chemical Co., St. Louis, Mo.) at […] in PBS for 5 min, washed with PBS and mounted with PBS:glycerol (3:1, v/v). Fluorescence was visualized with a Zeiss standard fluorescence microscope (Carl Zeiss, Inc., Thornwood, N.Y.). Photographs were taken with Kodak Ektar-1000 film (Eastman Kodak Co.). Stained nuclei were scored by blind analysis and categorized according to the condensation and staining characteristics of chromatin. Normal nuclei were identified as noncondensed chromatin dispersed over the entire nucleus. […] Three fields per dish of approximately 500 nuclei were counted; mean values are expressed as the percent of apoptotic nuclei.

[3] = system: HuH-7 cells; assay: TGF-β1-induced apoptosis, Hoechst staining, HuH-7 cells; type: cell-based, human
Protocol: Incubation of cells with ethanol, TGF-β1, anti-Fas antibody or okadaic acid. Freshly isolated rat hepatocytes were cultured for 3 h as described above and then incubated with William's E medium supplemented with either 0.5% ethanol, 50 μM UDCA, ethanol plus UDCA, or no addition (control) for 2 h and 4 h. HuH-7 cells were incubated with Dulbecco's medium supplemented with either 1 nM TGF-β1 (R & D Systems, Minneapolis, Minn.), 100 μM UDCA, TGF-β1+UDCA, or no addition (control) for 24 h, 48 h, and 72 h. Hep G2 cells were incubated with Dulbecco's medium supplemented with either 0.5 μg/ml of anti-Fas antibody CH-11 (Upstate Biotechnology, Inc., Lake Placid, N.Y.), 100 μM UDCA, CH-11+UDCA, or no addition for 48 h. Both HuH-7 cells and human osteogenic sarcoma Saos-2 cells were cultured in Dulbecco's medium supplemented with either 50 nM okadaic acid (Boehringer Mannheim Biochemicals, Inc, Indianapolis, Ind.), 100 μM UDCA, okadaic acid+UDCA, or no addition for 48 h. In all the combination groups, cells were pretreated with UDCA alone for 60 min prior to addition of ethanol, TGF-β1, anti-Fas antibody or okadaic acid.
HuH-7 cells were treated with 1 nM TGF-β1, 100 μM of either hyodeoxycholic acid, taurocholic acid, tauroursodeoxycholic acid (Sigma Chemical Co.) or glycoursodeoxycholic acid (Steraloids Inc., Wilton, N.H.), or a combination of TGF-β1 plus the individual bile acids for 72 h. HeLa and Cos-7 cells were incubated with 50 nM okadaic acid, 100 μM of either tauroursodeoxycholic acid or glycoursodeoxycholic acid, or a combination of okadaic acid plus the individual bile acids for 24 h. In the combination groups, cells were pretreated with the bile acid alone for 60 min prior to incuation with TGF-β1 or okadaic acid. In all studies, the medium was gently removed at the indicated times and scored for nonviable cells. The attached cells were fixed for morphologic evaluation of apoptosis.
Morphological evaluation of apoptosis. […] Fluorescence was visualized with a Zeiss standard fluorescence microscope (Carl Zeiss, Inc., Thornwood, N.Y.). Photographs were taken with Kodak Ektar-1000 film (Eastman Kodak Co.). Stained nuclei were scored by blind analysis and categorized according to the condensation and staining characteristics of chromatin. Normal nuclei were identified as noncondensed chromatin dispersed over the entire nucleus. Apoptotic nuclei were identified by condensed chromatin, contiguous to the nuclear membrane, as well as nuclear fragmentation of condensed chromatin. Three fields per dish of approximately 500 nuclei were counted; mean values are expressed as the percent of apoptotic nuclei.

[4] = 100 μM DCA alone or 500 μM UDCA alone
[5] = 1 nM TGF-β1, 100 μM bile acid, 72 h

C[C@H](CCC(=O)O)[C@H]1CC[C@H]2[C@@H]3CC[C@@H]4C[C@H](O)CC[C@]4(C)[C@H]3C[C@H](O)[C@]12C [DCA, deoxycholic acid] was tested, and the “other ROS (peroxides, H2DCFDA)” value ([1]; 100 μM DCA alone) was 21.7±3.5%, the superoxide anion production [1, 4] was 20.7±2.4% and the “percentage of low ΔΨm” value ([1]; 100 μM DCA alone, 5 min) was 16.0±1.8%. For the same compound, the “percentage of apoptotic cells” value [2] was 7%.

For C[C@H](CCC(=O)O)[C@H]1CC[C@H]2[C@@H]3[C@@H](O)C[C@@H]4C[C@H](O)CC[C@]4(C)[C@H]3CC[C@]12C [UDCA, ursodeoxycholic acid], the “decrease of TGF-β1 apoptosis” value ([3]; 1 nM TGF-β1, 100 μM bile acid, 24 h) was “approximately 49%”, the “decrease of TGF-β1 apoptosis” value ([3]; 1 nM TGF-β1, 100 μM bile acid, 48 h) was about 44% and the “decrease of TGF-β1 apoptosis” value [3, 5] was about 45%. The “Inhibition % Apoptosis” value ([3]; inducer TGF-β1, HuH-7, inhibition by UDCA) was 44.2 ± 11.2%, the “reduction of ROS production of peroxides” value ([1]; 80 μM PhAsO + 500 μM UDCA) was 55% and the “reduction of ROS production of superoxide anions” value ([1]; 80 μM PhAsO + 500 μM UDCA) was 100%. The “reduction of ΔΨm disruption” value ([1]; 80 μM PhAsO + 500 μM UDCA versus PhAsO alone) was “approximately 65%”, the “other ROS (peroxides, H2DCFDA)” value ([1]; 100 μM DCA + 500 μM UDCA) was 14.7±1.4% and the “percentage of low ΔΨm” value ([1]; 100 μM DCA + 500 μM UDCA) was 10.3±0.7%. The superoxide anion production ([1]; 100 μM DCA + 500 μM UDCA) was 15.9±1.5%, the superoxide anion production [1, 4] was 11.8±2.8% and the inhibition at 100 µM ([2]; Rattus norvegicus, Hepatocyte, 100 μM UDCA with each of the apoptosis-inducing agents) was over 80%.

For C[C@H](CCC(=O)O)[C@H]1CC[C@H]2[C@@H]3C[C@H](O)[C@@H]4C[C@H](O)CC[C@]4(C)[C@H]3CC[C@]12C [hyodeoxycholic acid], the “inhibition of TGF-β1-induced apoptosis” value [3, 5] was “did not; also recorded: neither hyodeoxycholic acid nor taurocholic acid showed inhibition”, the “effect on DCA-mediated changes in ΔΨm and ROS production” value ([1]; 100 μM DCA, 500 μM bile acid pretreatment, listed as HDCA) was “did not prevent DCA-mediated changes; also recorded: does not significantly inhibit” and the “ΔΨm and ROS with HDCA alone” value ([1]; 500 μM HDCA alone) was “no changes were observed”.

For C=C1[C@@H](O)[C@@H]2O[C@]3(CC[C@H](/C=C/[C@@H](C)[C@@H]4CC(C)=C[C@@]5(O[C@H](C[C@@](C)(O)C(=O)O)CC[C@H]5O)O4)O3)CC[C@H]2O[C@@H]1[C@@H](O)C[C@H](C)[C@H]1O[C@@]2(CCCCO2)CC[C@H]1C [okadaic acid], the “percentage of apoptotic cells” value [2] was 75%.

“TGF-β1: transforming growth factor β1, nonmembrane damaging inducer of apoptosis” was tested, and the induction of apoptosis ([3]; 1 nM TGF-β1) was “significant apoptosis” and the “percentage of apoptotic cells” value [2] was 30%.
